Each structure is given as a SMILES string.

The source of these data is patent US20080167314A1, “Condensed Imidazole Compound And Use Thereof” (priority 2004, published 2008).

The compound `Cc1ccc(Nc2cc(-c3c(-c4cccc(C)c4)nc4cccnn34)ccn2)cc1` [Example Compound 6-8, N-(4-methylphenyl)-4-[2-(3-methylphenyl)imidazo[1,2-b]pyridazin-3-yl]pyridin-2-amine] came in with a melting point of 213 to 214 °C. The compound `Cc1cccc(Nc2cc(-c3c(-c4cccc(C)c4)nc4cccnn34)ccn2)c1` [Example Compound 6-9, N-(3-methylphenyl)-4-[2-(3-methylphenyl)imidazo[1,2-b]pyridazin-3-yl]pyridin-2-amine] came in with a melting point of 195 to 196 °C. As to `Cc1cccc(-c2nc3cccnn3c2-c2ccnc(NC3CCCc4ccccc43)c2)c1` (centres unmarked) [Example Compound 6-12, 4-[2-(3-methylphenyl)imidazo[1,2-b]pyridazin-3-yl]-N-(1,2,3,4-tetrahydtonaphthalen-1-yl)pyridin-2-amine], the melting point is 195 to 196 °C. `COCCNc1cc(-c2c(-c3cccc(C)c3)nc3cccnn23)ccn1` [Example Compound 6-13, N-(2-methoxyethyl)-4-[2-(3-methylphenyl)imidazo[1,2-b]pyridazin-3-yl]pyridin-2-amine] yielded a melting point of 99 to 100 °C. On to `Cc1cccc(-c2nc3cccnn3c2-c2ccnc(NCCN3CCCCC3)c2)c1` [Example Compound 6-14, 4-[2-(3-methylphenyl)imidazo[1,2-b]pyridazin-3-yl]-N-[2-(piperidin-1-yl)ethyl]pyridin-2-amine], for which the melting point was in the range of 143 to 144 °C. As to `Cc1cccc(-c2nc3cccnn3c2-c2ccnc(NCc3cccs3)c2)c1` [Example Compound 6-15, 4-[2-(3-methylphenyl)imidazo[1,2-b]pyridazin-3-yl]-N-(2-thienylmethyl)pyridin-2-amine], the melting point lay within 185 to 186 °C. The compound `Cc1cccc(-c2nc3cccnn3c2-c2ccnc(NCC3CCCO3)c2)c1` (centres unmarked) [Example Compound 6-16, 4-[2-(3-methylphenyl)imidazo[1,2-b]pyridazin-3-yl]-N-(tetrahydrofuran-2-ylmethyl)pyridin-2-amine] returned a melting point of 137 to 138 °C.

Regarding `Cc1cccc(-c2nc3cccnn3c2-c2ccnc(NCc3ccco3)c2)c1` [Example Compound 6-17, N-(2-furylmethyl)-4-[2-(3-methylphenyl)imidazo[1,2-b]pyridazin-3-yl]pyridin-2-amine], the melting point is 150 to 151 °C. Compound `CCN(CC)CCNc1cc(-c2c(-c3cccc(C)c3)nc3cccnn23)ccn1` [Example Compound 6-19, N,N-diethyl-N′-{4-[2-(3-methylphenyl)imidazo[1,2-b]pyridazin-3-yl]pyridin-2-yl}ethane-1,2-diamine] registered a melting point of 97 to 98 °C. As for `Cc1cccc(-c2nc3cccnn3c2-c2ccnc(N[C@@H](C)c3ccccc3)c2)c1` [Example Compound 6-21, 4-[2-(3-methylphenyl)imidazo[1,2-b]pyridazin-3-yl]-N-[(1S)-1-phenylethyl]pyridin-2-amine], the melting point was 154 to 155 °C. `Cc1cccc(-c2nc3cccnn3c2-c2ccnc(N[C@H](C)c3ccccc3)c2)c1` [Example Compound 6-22, 4-[2-(3-methylphenyl)imidazo[1,2-b]pyridazin-3-yl]-N-[(1R)-1-phenylethyl]pyridin-2-amine] returned a melting point of 154 to 155 °C. The result for `Cc1cccc(-c2nc3cccnn3c2-c2ccnc(NCc3ccccc3)c2)c1` [Example Compound 6-23, N-benzyl-4-[2-(3-methylphenyl)imidazo[1,2-b]pyridazin-3-yl]pyridin-2-amine] reads 193 to 194 °C. In turn, `CCCCNc1cc(-c2c(-c3cccc(C)c3)nc3cccnn23)ccn1` [Example Compound 6-24, N-butyl-4-[2-(3-methylphenyl)imidazo[1,2-b]pyridazin-3-yl]pyridin-2-amine] came in with a melting point of 128 to 129 °C. `CCCNc1cc(-c2c(-c3cccc(C)c3)nc3cccnn23)ccn1` [Example Compound 6-25, 4-[2-(3-methylphenyl)imidazo[1,2-b]pyridazin-3-yl]-N-propylpyridin-2-amine]: the melting point is 128 to 129 °C. The compound `CCNc1cc(-c2c(-c3cccc(C)c3)nc3cccnn23)ccn1` [Example Compound 6-26, N-ethyl-4-[2-(3-methylphenyl)imidazo[1,2-b]pyridazin-3-yl]pyridin-2-amine] came in with a melting point of 151 to 153 °C.

`Nc1cc(-c2c(-c3cccc(Cl)c3)nc3ccc(Cl)nn23)ccn1` [Example Compound 13-1, 4-[6-chloro-2-(3-chlorophenyl)imidazo[1,2-b]pyridazin-3-yl]pyridin-2-amine] showed a melting point of 268 to 269 °C.

`Nc1cc(-c2c(-c3ccc(Cl)cc3)nc3cccnn23)ccn1` [Example Compound 16-2, 4-[2-(4-chlorophenyl)imidazo[1,2-b]pyridazin-3-yl]pyridin-2-amine]: the melting point fell in the range of 252 to 253 °C. The compound `Cc1cccc(-c2nc3cccnn3c2-c2ccnc(NC(=O)c3ccc(Cl)cc3)c2)c1` [Example Compound 20-3, 4-chloro-N-{4-[2-(3-methylphenyl)imidazo[1,2-b]pyridazin-3-yl]pyridin-2-yl}benzamide] displayed a melting point of 211 to 212 °C.

`Cc1cccc(-c2nc3cccnn3c2-c2ccnc(NC(=O)c3cccc(F)c3)c2)c1` [Example Compound 20-4, 3-fluoro-N-{4-[2-(3-methylphenyl)imidazo[1,2-b]pyridazin-3-yl]pyridin-2-yl}benzamide] registered a melting point of 204 to 205 °C. The compound `Cc1cccc(-c2nc3cccnn3c2-c2ccnc(NC(=O)c3ccccc3F)c2)c1` [Example Compound 20-5, 2-fluoro-N-{4-[2-(3-methylphenyl)imidazo[1,2-b]pyridazin-3-yl]pyridin-2-yl}benzamide] returned a melting point of 180 to 181 °C. As to `CC(=O)Nc1cc(-c2c(-c3cccc(C)c3)nc3cccnn23)ccn1` [Example Compound 20-7, N-{4-[2-(3-methylphenyl)imidazo[1,2-b]pyridazin-3-yl]pyridin-2-yl}acetamide], the melting point was 227 to 228 °C. For the compound `CCC(=O)Nc1cc(-c2c(-c3cccc(C)c3)nc3cccnn23)ccn1` [Example Compound 20-9, N-{4-[2-(3-methylphenyl)imidazo[1,2-b]pyridazin-3-yl]pyridin-2-yl}propanamide], the melting point lay in the range of 138 to 139 °C. With `COc1ccc(CC(=O)Nc2cc(-c3c(-c4cccc(C)c4)nc4cccnn34)ccn2)cc1` [Example Compound 20-12, 2-(4-methoxyphenyl)-N-{4-[2-(3-methylphenyl)imidazo[1,2-b]pyridazin-3-yl]pyridin-2-yl}acetamide] the figure was 213 to 214 °C. In turn, `COc1ccc(C(=O)Nc2cc(-c3c(-c4cccc(Cl)c4)nc4cccnn34)ccn2)cc1` [Example Compound 21-3, N-{4-[2-(3-chlorophenyl)imidazo[1,2-b]pyridazin-3-yl]pyridin-2-yl}-4-methoxybenzamide] had a melting point of 223 to 224 °C. The compound `CCC(=O)Nc1cc(-c2c(-c3cccc(Cl)c3)nc3cccnn23)ccn1` [Example Compound 21-7, N-{4-[2-(3-chlorophenyl)imidazo[1,2-b]pyridazin-3-yl]pyridin-2-yl}propanamide] showed a melting point of 192 to 193 °C.

In turn, `Cc1cc(-c2nc3cccnn3c2-c2ccnc(NC(=O)c3ccc(Cl)cc3)c2)ccc1F` [Example Compound 21-17, 4-chloro-N-{4-[2-(4-fluoro-3-methylphenyl)imidazo[1,2-b]pyridazin-3-yl]pyridin-2-yl}benzamide] yielded a melting point of 207 to 209 °C. Compound `CCC(=O)Nc1cc(-c2c(-c3ccc(F)c(C)c3)nc3cccnn23)ccn1` [Example Compound 21-18, N-{4-[2-(4-fluoro-3-methylphenyl)imidazo[1,2-b]pyridazin-3-yl]pyridin-2-yl}propanamide] showed a melting point of 166 to 167 °C. Compound `CCC(=O)Nc1cc(-c2c(-c3ccc(Cl)cc3)nc3cccnn23)ccn1` [Example Compound 21-28, N-{4-[2-(4-chlorophenyl)imidazo[1,2-b]pyridazin-3-yl]pyridin-2-yl}propanamide] displayed a melting point of 204 to 205 °C. In turn, `Cc1cccc(-c2nc3cccnn3c2-c2ccnc(N(C(=O)C3CC3)C(=O)C3CC3)c2)c1` [Example Compound 23-1, N-(cyclopropylcarbonyl)-N-{4-[2-(3-methylphenyl)imidazo[1,2-b]pyridazin-3-yl]pyridin-2-yl}cyclopropanecarboxamide] showed a melting point of 173 to 175 °C. `Cc1cccc(NC(=O)Nc2cc(-c3c(-c4cccc(C)c4)nc4cccnn34)ccn2)c1` [Example Compound 27-2, N-(3-methylphenyl)-N′-{4-[2-(3-methylphenyl)imidazo[1,2-b]pyridazin-3-yl]pyridin-2-yl}urea] gave a melting point of 202 to 203 °C. The result for `CCNC(=O)Nc1cc(-c2c(-c3cccc(C)c3)nc3cccnn23)ccn1` [Example Compound 27-4, N-ethyl-N′-(4-[2-(3-methylphenyl)imidazo[1,2-b]pyridazin-3-yl]pyridin-2-yl)urea] reads 212 to 213 °C. For the compound `Cc1cccc(-c2nc3cccnn3c2-c2ccnc(NC(=O)NC(C)C)c2)c1` [Example Compound 27-6, N-isopropyl-N′-{4-[2-(3-methylphenyl)imidazo[1,2-b]pyridazin-3-yl]pyridin-2-yl}urea], the melting point fell in the range of 193 to 195 °C.

For `CCCNC(=O)Nc1cc(-c2c(-c3ccc(F)c(C)c3)nc3cccnn23)ccn1` [Example Compound 28-4, N-{4-[2-(4-fluoro-3-methylphenyl)imidazo[1,2-b]pyridazin-3-yl]pyridin-2-yl}-N′-propylurea], the melting point lay in the range of 231 to 232 °C. In turn, `Cc1cc(-c2nc3cccnn3c2-c2ccnc(NC(=O)NC3CCCCC3)c2)ccc1F` [Example Compound 28-6, N-cyclohexyl-N′-{4-[2-(4-fluoro-3-methylphenyl)imidazo[1,2-b]pyridazin-3-yl]pyridin-2-yl}urea] returned a melting point of 229 to 230 °C. Compound `CCNC(=O)Nc1cc(-c2c(-c3cccc(Cl)c3)nc3cccnn23)ccn1` [Example Compound 28-7, N-{4-[2-(3-chlorophenyl)imidazo[1,2-b]pyridazin-3-yl]pyridin-2-yl}-N′-ethylurea] came in with a melting point of 230 to 231 °C.

The term melting point denotes the temperature, or range, at which the solid turns liquid.
